Results on 10 molecules are retold here after PubChem BioAssay AID1745844 (Carcinogenic Potency Database (CPDB), 2022).

The source made the active and inactive calls. No rule for the calls is given here.

For the data set, the system named is rodent lifetime carcinogenesis bioassay, tumor incidence TD50. Kind of data set: carcinogenic potency in animals, long-term in vivo studies, CPDB compilation (AID 1745844).

On to `CCSC[C@H](N)C(=O)O`, for which the TD50 (rat, strain Wistar, males, in feed, site: abdomen, lesion: liposarcoma, dosed 58 weeks, study length 89 weeks) is 3630 mg/kg/day (inactive) and the TD50 (rat, strain Wistar, males, in feed, site: any site (literature study), lesion: several types, types named in the paper, dosed 58 weeks, study length 89 weeks) was 3630 mg/kg/day (inactive). Further, for the setting “rat, strain Wistar, males, in feed, site: liver, lesion: one or several types, types not named, dosed 58 weeks, study length 89 weeks”, the carcinogen call is “negative (inactive)”.

As to `O=P(OC(CCl)CCl)(OC(CCl)CCl)OC(CCl)CCl`, the TD50 is 192 mg/kg/day (rat, strain Charles River CD (Sprague-Dawley), females, in feed, site: adrenal gland, lesion: cortical adenoma, dosed 104 weeks, study length 104 weeks); 68.6 mg/kg/day (rat, strain Charles River CD (Sprague-Dawley), females, in feed, site: kidney, lesion: cortical adenoma, dosed 104 weeks, study length 104 weeks); 324 mg/kg/day (rat, strain Charles River CD (Sprague-Dawley), females, in feed, site: liver, lesion: hepatocellular adenoma, dosed 104 weeks, study length 104 weeks); 721 mg/kg/day (rat, strain Charles River CD (Sprague-Dawley), females, in feed, site: liver, lesion: hepatocellular carcinoma, dosed 104 weeks, study length 104 weeks); 206 mg/kg/day (rat, strain Charles River CD (Sprague-Dawley), females, in feed, site: liver, lesion: several types, types named in the paper, dosed 104 weeks, study length 104 weeks); 53.1 mg/kg/day (rat, strain Charles River CD (Sprague-Dawley), males, in feed, site: kidney, lesion: cortical adenoma, dosed 104 weeks, study length 104 weeks). Also, the TD50 was 252 mg/kg/day (rat, strain Charles River CD (Sprague-Dawley), males, in feed, site: liver, lesion: hepatocellular adenoma, dosed 104 weeks, study length 104 weeks); 390 mg/kg/day (rat, strain Charles River CD (Sprague-Dawley), males, in feed, site: liver, lesion: hepatocellular carcinoma, dosed 104 weeks, study length 104 weeks); 144 mg/kg/day (rat, strain Charles River CD (Sprague-Dawley), males, in feed, site: liver, lesion: several types, types named in the paper, dosed 104 weeks, study length 104 weeks); 35 mg/kg/day (rat, strain Charles River CD (Sprague-Dawley), males, in feed, site: testis, lesion: interstitial-cell tumor, dosed 104 weeks, study length 104 weeks).

For the molecule `Cc1[nH]cnc1CSCCN=C(NC#N)N(C)N=O`, the carcinogen call is “negative (inactive)” (mouse, strain C57BL/6, females, in drinking water, site: liver, lesion: several types, types named in the paper, dosed 102 weeks, study length 104 weeks); “negative (inactive)” (mouse, strain C57BL/6, females, in drinking water, site: lung, lesion: one or several types, types not named, dosed 102 weeks, study length 104 weeks); “negative (inactive)” (rat, strain Fischer 344, males, in drinking water, site: liver, lesion: neoplastic nodule, dosed 106 weeks, study length 131 weeks); “negative (inactive)” (rat, strain Sprague-Dawley, females, by gavage, site: any site (literature study), lesion: malignant tumor, dosed 52 weeks, study length 104 weeks); “negative (inactive)” (rat, strain Sprague-Dawley, females, by gavage, site: any site (literature study), lesion: several types, types named in the paper, dosed 52 weeks, study length 104 weeks); “negative (inactive)” (rat, strain Sprague-Dawley, males, by gavage, site: any site (literature study), lesion: several types, types named in the paper, dosed 52 weeks, study length 104 weeks). Moreover, the TD50 by setting is: (rat, strain Fischer 344, females, in drinking water, site: liver, lesion: neoplastic nodule, dosed 106 weeks, study length 131 weeks) 43.3 mg/kg/day (inactive); (rat, strain Fischer 344, females, in drinking water, site: pituitary gland, lesion: one or several types, types not named, dosed 106 weeks, study length 131 weeks) 3.6 mg/kg/day (inactive); (rat, strain Fischer 344, females, in drinking water, site: thyroid gland, lesion: one or several types, types not named, dosed 106 weeks, study length 131 weeks) 18.8 mg/kg/day (inactive); (rat, strain Sprague-Dawley, males, by gavage, site: any site (literature study), lesion: malignant tumor, dosed 52 weeks, study length 104 weeks) 4820 mg/kg/day (inactive).

In the case of `OCN(CO)c1nc(N(CO)CO)nc(N(CO)CO)n1`, the TD50 is, setting by setting: (rat, strain Sprague-Dawley, females, in feed, site: any site (literature study), lesion: several types, types named in the paper, dosed 44 weeks, study length 66 weeks) 6.82 mg/kg/day; (rat, strain Sprague-Dawley, females, in feed, site: kidney/pelvis, lesion: transitional-cell carcinoma, dosed 44 weeks, study length 66 weeks) 33.6 mg/kg/day; (rat, strain Sprague-Dawley, females, in feed, site: mammary gland, lesion: adenocarcinoma, dosed 44 weeks, study length 66 weeks) 10.2 mg/kg/day; (rat, strain Sprague-Dawley, females, in feed, site: mammary gland, lesion: several types, types named in the paper, dosed 44 weeks, study length 66 weeks) 11.9 mg/kg/day.

As for `N#CS`, where the note is “rat, strain Fischer 344, females, in drinking water, site: liver, lesion: one or several types, types not named, dosed 112 weeks, study length 130 weeks”, the carcinogen call was “negative (inactive)”. In addition, the TD50 (rat, strain Fischer 344, males, in drinking water, site: liver, lesion: one or several types, types not named, dosed 112 weeks, study length 130 weeks) was 2760 mg/kg/day (inactive); the TD50 (rat, strain Fischer 344, males, in drinking water, site: skin and subcutis, lesion: one or several types, types not named, dosed 112 weeks, study length 130 weeks) was 224 mg/kg/day (inactive).

For `CC1=C[C@H]2O[C@@H]3[C@H](O)C[C@](C)([C@@]2(CO)[C@H](O)C1=O)[C@]31CO1`, the carcinogen call was “negative (inactive)” (mouse, strain B6C3F1, males, in feed, site: liver, lesion: hepatocellular adenoma, dosed 104 weeks, study length 104 weeks) and “negative (inactive)” (mouse, strain B6C3F1, males, in feed, site: liver, lesion: hepatocellular carcinoma, dosed 104 weeks, study length 104 weeks).

For `O=C(O)C=Cc1ccc(O)c(O)c1`, the TD50 (mouse, strain B6C3F1, females, in feed, site: any site (literature study), lesion: one or several types, types not named, dosed 96 weeks, study length 96 weeks) is 1900 mg/kg/day; the TD50 (mouse, strain B6C3F1, females, in feed, site: forestomach, lesion: squamous-cell carcinoma, dosed 96 weeks, study length 96 weeks) is 43300 mg/kg/day; the TD50 (mouse, strain B6C3F1, females, in feed, site: kidney, lesion: tubular-cell adenoma, dosed 96 weeks, study length 96 weeks) was 4700 mg/kg/day; the TD50 (mouse, strain B6C3F1, males, in feed, site: any site (literature study), lesion: one or several types, types not named, dosed 96 weeks, study length 96 weeks) stood at 3210 mg/kg/day; the TD50 (mouse, strain B6C3F1, males, in feed, site: forestomach, lesion: papilloma, dosed 96 weeks, study length 96 weeks) came out at 9790 mg/kg/day; the TD50 (mouse, strain B6C3F1, males, in feed, site: forestomach, lesion: several types, types named in the paper, dosed 96 weeks, study length 96 weeks) was 5270 mg/kg/day. Also, the TD50 reads like this: (mouse, strain B6C3F1, males, in feed, site: forestomach, lesion: squamous-cell carcinoma, dosed 96 weeks, study length 96 weeks) 13300 mg/kg/day; (mouse, strain B6C3F1, males, in feed, site: lung, lesion: alveolar-cell adenoma, dosed 96 weeks, study length 96 weeks) 6110 mg/kg/day; (mouse, strain B6C3F1, males, in feed, site: lung, lesion: alveolar-cell carcinoma, dosed 96 weeks, study length 96 weeks) 41300 mg/kg/day; (mouse, strain B6C3F1, males, in feed, site: lung, lesion: several types, types named in the paper, dosed 96 weeks, study length 96 weeks) 5120 mg/kg/day; (rat, strain F344/DuCrj, females, in feed, site: any site (literature study), lesion: one or several types, types not named, dosed 104 weeks, study length 104 weeks) 312 mg/kg/day; (rat, strain F344/DuCrj, females, in feed, site: forestomach, lesion: papilloma, dosed 104 weeks, study length 104 weeks) 426 mg/kg/day. The TD50 was 298 mg/kg/day (rat, strain F344/DuCrj, females, in feed, site: forestomach, lesion: several types, types named in the paper, dosed 104 weeks, study length 104 weeks); 989 mg/kg/day (rat, strain F344/DuCrj, females, in feed, site: forestomach, lesion: squamous-cell carcinoma, dosed 104 weeks, study length 104 weeks); 377 mg/kg/day (rat, strain F344/DuCrj, males, in feed, site: forestomach, lesion: papilloma, dosed 104 weeks, study length 104 weeks); 272 mg/kg/day (rat, strain F344/DuCrj, males, in feed, site: forestomach, lesion: several types, types named in the paper, dosed 104 weeks, study length 104 weeks); 656 mg/kg/day (rat, strain F344/DuCrj, males, in feed, site: forestomach, lesion: squamous-cell carcinoma, dosed 104 weeks, study length 104 weeks); 217 mg/kg/day (rat, strain F344/DuCrj, males, in feed, site: forestomach, lesion: squamous-cell papilloma, dosed 51 weeks, study length 52 weeks). Also, the TD50 (rat, strain F344/DuCrj, males, in feed, site: forestomach, lesion: squamous-cell papilloma, dosed 60 weeks, study length 60 weeks) is 542 mg/kg/day and the TD50 (rat, strain F344/DuCrj, males, in feed, site: kidney, lesion: tubular-cell adenoma, dosed 104 weeks, study length 104 weeks) was 3830 mg/kg/day.

With `CCN(CC)CCCNC(=O)Cn1ncc(-c2ccccc2)c1-c1ccccc1`, the carcinogen call by setting is: (rat, strain Charles River CD (Sprague-Dawley), females, by gavage, site: liver, lesion: one or several types, types not named, dosed 52 weeks, study length 52 weeks) “negative (inactive)”; (rat, strain Charles River CD (Sprague-Dawley), males, by gavage, site: liver, lesion: one or several types, types not named, dosed 52 weeks, study length 52 weeks) “negative (inactive)”.

As for `CCCCC(CC)CO` (centres undefined), the TD50 is 1680 mg/kg/day (mouse, strain B6C3F1, females, by gavage, site: liver, lesion: hepatocellular carcinoma, dosed 80 weeks, study length 80 weeks) and 1710 mg/kg/day (inactive) (mouse, strain B6C3F1, males, by gavage, site: liver, lesion: several types, types named in the paper, dosed 80 weeks, study length 80 weeks). Also, the carcinogen call was “negative (inactive)” (rat, strain Fischer 344, females, by gavage, site: liver, lesion: hepatocellular carcinoma, dosed 104 weeks, study length 104 weeks) and “negative (inactive)” (rat, strain Fischer 344, males, by gavage, site: liver, lesion: several types, types named in the paper, dosed 104 weeks, study length 104 weeks).

Regarding `CCOP(=S)(OCC)SC1OCCOC1SP(=S)(OCC)OCC` (centres undefined), the TD50 is 2590 mg/kg/day (inactive) (mouse, strain B6C3F1, females, in feed, site: any site (literature study), lesion: several types, types named in the paper, dosed 78 weeks, study length 90 weeks); 1820 mg/kg/day (mouse, strain B6C3F1, females, in feed, site: lung, lesion: alveolar/bronchiolar adenoma + alveolar/bronchiolar carcinoma, dosed 78 weeks, study length 90 weeks); 628 mg/kg/day (mouse, strain B6C3F1, males, in feed, site: lung, lesion: alveolar/bronchiolar adenoma + alveolar/bronchiolar carcinoma, dosed 78 weeks, study length 90 weeks). Besides, the carcinogen call reads like this: (mouse, strain B6C3F1, males, in feed, site: any site (literature study), lesion: several types, types named in the paper, dosed 78 weeks, study length 90 weeks) “negative (inactive)”; (rat, strain Osborne-Mendel, females, in feed, site: any site (literature study), lesion: several types, types named in the paper, dosed 78 weeks, study length 111 weeks) “negative (inactive)”; (rat, strain Osborne-Mendel, males, in feed, site: any site (literature study), lesion: several types, types named in the paper, dosed 78 weeks, study length 111 weeks) “negative (inactive)”.

For orientation: TD50 means the dose at which the toxic effect under study appears in half of the subjects.
